In patent publication US4461902A, “Thiazolidine derivatives and production thereof” (Takeda Chemical Industries, Ltd., priority 1982, dated 1984):

Tested on: not listed separately
Test: Toxicity (LD50) in mice
Details: mouse, in vivo
`CC1(COc2ccc(CC3SC(=O)NC3=O)cc2)CCCC(=O)C1` (stereo not drawn) [5-[4-(1-methyl-3-oxocyclohexylmethoxy)benzyl]thiazolidine-2,4-dione] showed an LD50 of no less than 5000 mg/kg. In the case of `CC1(COc2ccc(CC3SC(=O)NC3=O)cc2)CCC(O)CC1` (stereo not drawn) [5-[4-(4-hydroxy-1-methylcyclohexylmethoxy)benzyl]thiazolidine-2,4-dione], the LD50 is reported as no less than 5000 mg/kg. Molecule `CC1(COc2ccc(CC3SC(=O)NC3=O)cc2)CCC(=O)CC1` (stereo not drawn) [Example 3, 5-[4-(1-methyl-4-oxocyclohexylmethoxy)benzyl]thiazolidine-2,4-dione] has an LD50 of no less than 5000 mg/kg. Work on `CC1(COc2ccc(CC3SC(=O)NC3=O)cc2)CCCCC1=O` (stereo not drawn) [Test compound 3, 5-[4-(1-methyl-2-oxocyclohexylmethoxy)-benzyl]thiazolidine-2,4-dione] yielded an LD50 of no less than 5000 mg/kg.

Tested on: blood sugar
Test: Hypoglycemic activity in mice (blood sugar by the glucose oxidase method)
Format: in vivo, KKA^y mice (female, 10 weeks of age)
Details: KKA^y mice; 0.02% in powder diet CE2 for 4 days; activity of test compound 1 regarded as 100
Text: KKA^y mice (female, 10 weeks of age, 5 mice/group) received ad libitum powder diet CE2 (CLEA JAPAN) containing 0.02% of the compounds indicated below in the table mixed therewith for 4 days. Water was available ad libitum throughout the period. Blood sample were taken from the orbital vein and assayed for blood sugar by the glucose oxidase method.
With “5-[4-(2-hydroxy-1-methylcyclohexylmethoxy)benzyl]thiazolidine-2,4-dione [Test compound 4]” the “Hypoglycemic activity (relative potency)” value was 118. In the case of `C[C@@]1(COc2ccc(CC3SC(=O)NC3=O)cc2)CCC[C@@H](O)C1` (relative stereo) [Test compound 6, 5-[4-(t-3-hydroxy-1-methyl-r-1-cyclohexylmethoxy)benzyl]-thiazolidine-2,4-dione], the “Hypoglycemic activity (relative potency)” value is reported as 369. In the case of `C[C@@]1(COc2ccc(CC3SC(=O)NC3=O)cc2)CCC[C@H](O)C1` (relative stereo) [compound 7], the “Hypoglycemic activity (relative potency)” value is reported as 125. With `CC1(COc2ccc(CC3SC(=O)NC3=O)cc2)CCCCC1=O` (stereo not drawn) [Test compound 3, 5-[4-(1-methyl-2-oxocyclohexylmethoxy)-benzyl]thiazolidine-2,4-dione] the “Hypoglycemic activity (relative potency)” value was 179. For `CC1(COc2ccc(CC3SC(=O)NC3=O)cc2)CCCCC1O` (stereo not drawn) [compound 4], the “Hypoglycemic activity (relative potency)” value was 114.
